Results from patent publication US20190053492A1, “SUBSTITUTED PYRIDINE COMPOUNDS AS PESTICIDES” (Bayer CropScience Aktiengesellschaft, priority 2016, published 2019).
Where two headings read alike, the source gives them in different places.

Columns and labels:
Phaedon cochleariae = Phaedon cochleariae spray test; format: in vivo; conditions: after 7 days, Chinese cabbage leaf discs
Procedure, shortened: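 Larval kill read at day 7 as percent, where 100% means every larva dead and 0% none; larvae were placed on dried Brassica pekinensis leaf discs previously sprayed with the formulation (acetone/dimethylformamide solvent, alkylaryl polyglycol ether emulsifier, water).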

Lucilia cuprina = Lucilia cuprina test; format: in vivo; conditions: application rate 100 ppm, after 2 days, L1 larvae
Method: Lucilia cuprina Test Solvent: dimethyl sulphoxide To produce a suitable active ingredient formulation, 10 mg of active ingredient are mixed with 0.5 ml of dimethyl sulphoxide, and the concentrate is diluted with water to the desired concentration. About 20 L1 larvae of the Australian sheep blowfly (Lucilia cuprina) are transferred into a test vessel containing minced horsemeat and the active ingredient formulation of the desired concentration. After 2 days, the kill in % is determined. 100% means that all the larvae have been killed; 0% means that no larvae have been killed.

[1] = log P by HPLC on reversed-phase column (C 18), EEC Directive 79/831 Annex V.A8; format: physicochemical; conditions: 55° C.; for LOGP_HCOOH: log P (HCOOH); for chromatographic logP: reversed-phase HPLC column (C 18)
Method: Temperature: 55° C. […] Called log P (HCOOH) in the table. […] Called log P (neutral) in the table.

Spodoptera frugiperda = Spodoptera frugiperda spray test; format: in vivo; conditions: after 7 days, maize leaf discs
Procedure, shortened: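 Efficacy in % was scored at 7 days against armyworm caterpillars placed on dried, compound-sprayed Zea mays leaf discs. Compound was dissolved in acetone/dimethylformamide and diluted in water with 1000 ppm alkylaryl polyglycol ether. 100% means all caterpillars were killed.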

Ctenocephalides felis = Ctenocephalides felis oral test; format: in vivo; conditions: application rate 100 ppm in citrated cattle blood, after 2 days, adult cat fleas
Procedure, shortened: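 Kill (%) was recorded at 2 days. Compound, dissolved in DMSO and diluted into citrated cattle blood, was offered to roughly 20 unfed adult C. felis through parafilm.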

[2] = acidic range at pH 2.7, 0.1% aqueous formic acid and acetonitrile, HPLC on reversed-phase column (C 18)
[3] = acidic range pH 2.7, 0.1% aqueous formic acid and acetonitrile, reversed-phase column (C 18)
[4] = log P, neutral range, HPLC on reversed-phase column (C 18)

Structure (SMILES)	efficacy (beetle larvae killed) (Phaedon cochleariae; application rate 100 g/ha)	efficacy (beetle larvae killed) (Phaedon cochleariae; application rate 500 g/ha)	efficacy (kill in %) (Lucilia cuprina)	LOGP_HCOOH [1, 2]	efficacy (caterpillars killed) (Spodoptera frugiperda; application rate 100 g/ha)	efficacy (caterpillars killed) (Spodoptera frugiperda; application rate 500 g/ha)	efficacy (kill in %) (Ctenocephalides felis)	LOGP_HCOOH [1, 3]	LOGP_NEUTRAL [1, 4]	pest or weed control at 100 g/ha (Phaedon cochleariae; Phaedon cochleariae, foliar, 168 h, application rate 100 g/ha, read-out: efficacy (beetle larvae killed))	pest or weed control at 500 g/ha (Phaedon cochleariae; Phaedon cochleariae, foliar, 168 h, application rate 500 g/ha, read-out: efficacy (beetle larvae killed))	chromatographic logP ([1]; pH 2.7, LC-MS acidic range, pH 2.7, 0.1% formic acid/acetonitrile, read-out: log P (acidic) / log P (HCOOH))	chromatographic logP ([1]; pH 7.8, LC-MS neutral range, pH 7.8, ammonium hydrogencarbonate/acetonitrile, read-out: log P (neutral))	pest or weed control at 100 g/ha (Spodoptera frugiperda; Spodoptera frugiperda, foliar, 168 h, application rate 100 g/ha, read-out: efficacy (caterpillars killed))	pest or weed control at 500 g/ha (Spodoptera frugiperda; Spodoptera frugiperda, foliar, 168 h, application rate 500 g/ha, read-out: efficacy (caterpillars killed))	pest or weed control at 100 ppm (Ctenocephalides felis; Ctenocephalides felis, po, 48 h, read-out: efficacy (kill in %))	LOGP_NEUTRAL ([1]; log P (neutral), HPLC reversed-phase column (C 18))
N#Cc1ccc(CNC(=O)c2cc(-c3ccc(OC(F)(F)Cl)cc3)cc(NC(=O)C3CC3)n2)cc1 [Example I-190]	100%	100%	100%	4.09	100%	100%	100%	–	–	–	–	–	–	–	–	–	–
O=C(NCC1CC1)c1cc(-c2ccc(OC(F)(F)F)cc2)cc(NC(=O)C2CC2)n1 [Example I-141]	100%	100%	100%	3.84	83%	100%	100%	–	–	–	–	–	–	–	–	–	–
N#Cc1ccc(CNC(=O)c2cc(-c3ccc(SC(F)(F)F)cc3)cc(NC(=O)C3CC3)n2)cc1 [Example I-052]	100%	100%	100%	–	100%	100%	100%	4.19	4.01	–	–	–	–	–	–	–	–
N#Cc1ccc(CNC(=O)c2cc(-c3ccc(OC(F)(F)F)cc3)cc(NC(=O)C3CC3)n2)cc1 [Example I-044, N-(4-Cyanobenzyl)-6-[(cyclopropylcarbonyl)amino]-4-[4-(trifluoromethoxy)phenyl]pyridine-2-carboxamide]	–	–	100%	–	–	–	–	3.90	3.76	100%	100%	3.9	3.76	100%	100%	100%	–
CC(NC(=O)c1cc(-c2ccc(OC(F)(F)F)cc2)cc(NC(=O)C2CC2)n1)c1ccc([N+](=O)[O-])cc1 (stereo not shown) [Example I-228]	–	100%	100%	4.28	83%	100%	100%	–	–	–	–	–	–	–	–	–	–
N#Cc1ccc(CNC(=O)c2cc(-c3ccc(OC(F)(F)F)cc3F)cc(NC(=O)C3CC3)n2)cc1 [Example I-124]	100%	100%	100%	3.87	100%	100%	100%	–	3.78	–	–	–	–	–	–	–	–
CC(NC(=O)c1cc(-c2ccc(C(F)(F)C(F)(F)F)c(F)c2)cc(NC(=O)C2CC2)n1)c1ccc(C#N)cc1 (stereo not shown) [Example I-247]	100%	100%	100%	–	100%	100%	100%	4.56	–	–	–	–	–	–	–	–	4.49
O=C(NCc1ccc(-c2ncon2)cc1)c1cc(-c2ccc(SC(F)(F)F)cc2)cc(NC(=O)C2CC2)n1 [Example I-093]	100%	100%	100%	–	–	100%	95%	4.28	4.15	–	–	–	–	–	–	–	–
